Laboratory results published in ChEMBL document CHEMBL4673362, “Design, synthesis, and biological evaluation of 2,6,7-substituted pyrrolo[2,3-d]pyrimidines as cyclin dependent kinase inhibitor in pancreatic cancer cells” (Bioorg Med Chem Lett, 2021).
In brackets after ≈: the same amount, converted by molar mass. Activity calls are given as the source filed them. The calls are words filed in the database; no cut-off is given here.

What was measured:
[1] = biological target: Calcium/calmodulin-dependent protein kinase type 1 (Homo sapiens) (UniProt Q14012); experiment: Inhibition of human CAMK1 at 1 uM relative to control
[2] = Metabolic stability in human liver microsomes assessed as half life; format: ADME, Microsome
[3] = biological target: Mitogen-activated protein kinase kinase kinase 9 (Homo sapiens) (UniProt P80192); experiment: Inhibition of human MLK1 at 1 uM relative to control
MIA PaCa-2 [4] = experiment: Antiproliferative activity against human MIA PaCa-2 cells assessed as inhibition of cell growth by MTT assay; format: functional, cell-based
MIA PaCa-2 [5] = experiment: Cell cycle arrest in human MIA PaCa-2 cells assessed as accumulation at S phase at 0.8 uM (reference value: 45.27 %); format: functional
[6] = biological target: Calcium/calmodulin-dependent protein kinase kinase 1 (Homo sapiens) (UniProt Q8N5S9); experiment: Inhibition of human CAMKKA at 1 uM relative to control
[7] = biological target: Dual specificity protein kinase TTK (Homo sapiens) (UniProt P33981); experiment: Inhibition of human TTK at 1 uM relative to control
MIA PaCa-2 [8] = experiment: Cell cycle arrest in human MIA PaCa-2 cells assessed as accumulation at S phase at 2.5 uM (reference value: 45.27 %); format: functional
MIA PaCa-2 [9] = experiment: Cell cycle arrest in human MIA PaCa-2 cells assessed as accumulation at G2 phase at 0.8 uM (reference value: 10.64 %); format: functional
BXPC-3 = experiment: Antiproliferative activity against human BxPC-3 cells assessed as inhibition of cell growth by MTT assay; format: functional, cell-based
[10] = Permeability of the compound at pH 5.0 by PAMPA; format: ADME; settings: read-out: permeability
[11] = biological target: Cyclin-dependent kinase 4/cyclin D1 (Homo sapiens, UniProt P11802); experiment: Inhibition of CDK4/cyclin D1 (unknown origin); format: protein-complex assay
MIA PaCa-2 [12] = experiment: Antiproliferative activity against human MIA PaCa-2 cells assessed as inhibition of cell proliferation at 1 uM in presence of PI3K/mTOR inhibitor, BEZ235; format: functional, cell-based
MIA PaCa-2 [13] = experiment: Cell cycle arrest in human MIA PaCa-2 cells assessed as accumulation at G2 phase at 2.5 uM (reference value: 10.64 %); format: functional
[14] = biological target: Cyclin-dependent kinase 4/cyclin D1 (Homo sapiens) (UniProt P11802+P24385); experiment: Inhibition of human CDK4/cyclin D1 at 1 uM relative to control; format: protein-complex assay
[15] = biological target: Cyclin-dependent kinase 6 (Homo sapiens) (UniProt Q00534); experiment: Inhibition of CDK6 (unknown origin) at 1 uM
MIA PaCa-2 [16] = experiment: Cell cycle arrest in human MIA PaCa-2 cells assessed as accumulation at G1 phase; format: functional, cell-based; settings: dose 0.8-2.5 µM
MIA PaCa-2 [17] = experiment: Cell cycle arrest in human MIA PaCa-2 cells assessed as accumulation at G1 phase at 2.5 uM (reference value: 44.09 %); format: functional
MIA PaCa-2 [18] = experiment: Antiproliferative activity against human MIA PaCa-2 cells assessed as inhibition of cell proliferation at 0.5 uM in presence of 10 to 20 nM PI3K/mTOR inhibitor, BEZ235; format: functional, cell-based
MIA PaCa-2 [19] = experiment: Cell cycle arrest in human MIA PaCa-2 cells assessed as accumulation at S phase at 1.6 uM (reference value: 45.27 %); format: functional
[20] = Solubility of the compound at pH 7.4; format: physicochemical; settings: buffer
MIA PaCa-2 [21] = experiment: Cell cycle arrest in human MIA PaCa-2 cells assessed as accumulation at G2 phase at 1.6 uM (reference value: 10.64 %); format: functional
[22] = biological target: Tyrosine-protein kinase Fer (Homo sapiens) (UniProt P16591); experiment: Inhibition of human FER at 1 uM relative to control
[23] = biological target: CDK6/cyclin D1 (Homo sapiens) (UniProt P24385+Q00534); experiment: Inhibition of human CDK6/cyclin D1 at 1 uM relative to control; format: protein-complex assay
MIA PaCa-2 [24] = experiment: Cell cycle arrest in human MIA PaCa-2 cells assessed as accumulation at G1 phase at 0.8 uM (reference value: 44.09 %); format: functional
[25] = biological target: CDK4/Cyclin D3 (Homo sapiens) (UniProt P11802+P30281); experiment: Inhibition of human CDK4/cyclin D3 at 1 uM relative to control; format: protein-complex assay
[26] = biological target: Cyclin-dependent kinase 4 (Homo sapiens) (UniProt P11802); experiment: Inhibition of CDK4 (unknown origin) at 1 uM
[27] = Permeability of the compound at pH 7.4 by PAMPA; format: ADME; settings: read-out: permeability
MIA PaCa-2 [28] = experiment: Cell cycle arrest in human MIA PaCa-2 cells assessed as accumulation at G1 phase at 1.6 uM (reference value: 44.09 %); format: functional
CDK6/cyclin D1 = CDK6/cyclin D1 (Homo sapiens, UniProt Q00534); experiment: Inhibition of CDK6/cyclin D1 (unknown origin); format: protein-complex assay
[29] = Metabolic stability in rat liver microsomes assessed as half life; format: ADME, Microsome
MIA PaCa-2 [30] = experiment: Potency index, ratio of ribociclib IC50 to test compound IC50 for antiproliferative activity against human MIA PaCa-2 cells by MTT assay; format: functional

Sequence of Tyrosine-protein kinase Fer (Homo sapiens) (P16591 whole entry, looked up): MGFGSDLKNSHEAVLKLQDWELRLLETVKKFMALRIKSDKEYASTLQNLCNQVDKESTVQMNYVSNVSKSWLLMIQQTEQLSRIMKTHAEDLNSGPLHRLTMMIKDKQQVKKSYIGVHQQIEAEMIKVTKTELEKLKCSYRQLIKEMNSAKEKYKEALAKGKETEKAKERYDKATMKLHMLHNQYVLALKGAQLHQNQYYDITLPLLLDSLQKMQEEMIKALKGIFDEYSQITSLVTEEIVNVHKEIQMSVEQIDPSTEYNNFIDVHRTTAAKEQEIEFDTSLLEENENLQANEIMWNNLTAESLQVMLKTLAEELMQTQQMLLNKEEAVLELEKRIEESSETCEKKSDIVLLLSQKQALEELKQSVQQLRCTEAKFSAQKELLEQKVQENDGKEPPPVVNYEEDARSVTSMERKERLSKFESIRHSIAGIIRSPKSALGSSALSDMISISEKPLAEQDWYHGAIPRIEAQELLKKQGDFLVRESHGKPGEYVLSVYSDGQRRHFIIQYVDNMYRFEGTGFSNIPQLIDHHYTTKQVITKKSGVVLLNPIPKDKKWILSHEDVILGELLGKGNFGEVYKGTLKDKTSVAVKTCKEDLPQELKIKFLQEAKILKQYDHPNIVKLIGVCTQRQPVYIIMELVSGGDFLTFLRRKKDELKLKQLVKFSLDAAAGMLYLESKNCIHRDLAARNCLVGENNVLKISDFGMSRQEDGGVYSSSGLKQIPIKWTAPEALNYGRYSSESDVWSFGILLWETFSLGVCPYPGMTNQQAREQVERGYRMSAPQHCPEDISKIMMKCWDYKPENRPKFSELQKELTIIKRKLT
Sequence of Dual specificity protein kinase TTK (Homo sapiens) (P33981 whole entry): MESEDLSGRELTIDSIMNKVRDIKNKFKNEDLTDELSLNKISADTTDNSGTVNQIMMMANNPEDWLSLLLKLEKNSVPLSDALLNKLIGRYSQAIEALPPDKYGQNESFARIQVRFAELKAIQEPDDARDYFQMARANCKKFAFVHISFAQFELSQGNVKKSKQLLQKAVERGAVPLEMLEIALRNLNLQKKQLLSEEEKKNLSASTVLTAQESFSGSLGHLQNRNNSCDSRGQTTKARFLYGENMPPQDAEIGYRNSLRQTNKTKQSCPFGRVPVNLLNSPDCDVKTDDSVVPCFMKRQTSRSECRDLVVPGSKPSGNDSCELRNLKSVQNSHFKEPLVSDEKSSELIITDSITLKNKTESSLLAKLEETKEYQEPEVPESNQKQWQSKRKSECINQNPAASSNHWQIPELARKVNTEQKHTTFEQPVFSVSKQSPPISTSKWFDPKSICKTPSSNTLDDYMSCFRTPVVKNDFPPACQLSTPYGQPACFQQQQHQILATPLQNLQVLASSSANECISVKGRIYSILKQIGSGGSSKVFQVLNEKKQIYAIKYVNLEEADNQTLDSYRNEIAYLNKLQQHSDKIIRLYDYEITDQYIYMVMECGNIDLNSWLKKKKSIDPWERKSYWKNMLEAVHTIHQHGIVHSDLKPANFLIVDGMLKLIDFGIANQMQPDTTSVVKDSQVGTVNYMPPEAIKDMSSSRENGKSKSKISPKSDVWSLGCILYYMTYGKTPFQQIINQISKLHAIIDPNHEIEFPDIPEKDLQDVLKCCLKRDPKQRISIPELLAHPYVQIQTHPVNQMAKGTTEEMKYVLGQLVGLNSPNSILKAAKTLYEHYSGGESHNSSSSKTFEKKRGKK
Sequence of Cyclin-dependent kinase 6 (Homo sapiens) (Q00534 whole entry): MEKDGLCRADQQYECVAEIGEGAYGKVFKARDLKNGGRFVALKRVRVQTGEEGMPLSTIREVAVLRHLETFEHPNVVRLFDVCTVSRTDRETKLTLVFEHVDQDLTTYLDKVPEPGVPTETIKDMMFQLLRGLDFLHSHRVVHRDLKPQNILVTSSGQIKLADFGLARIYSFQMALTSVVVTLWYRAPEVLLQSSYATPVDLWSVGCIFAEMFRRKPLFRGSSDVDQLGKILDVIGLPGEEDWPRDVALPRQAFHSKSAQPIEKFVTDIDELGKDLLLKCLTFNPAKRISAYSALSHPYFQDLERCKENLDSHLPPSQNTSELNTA
Sequence of Mitogen-activated protein kinase kinase kinase 9 (Homo sapiens) (P80192 whole entry, looked up): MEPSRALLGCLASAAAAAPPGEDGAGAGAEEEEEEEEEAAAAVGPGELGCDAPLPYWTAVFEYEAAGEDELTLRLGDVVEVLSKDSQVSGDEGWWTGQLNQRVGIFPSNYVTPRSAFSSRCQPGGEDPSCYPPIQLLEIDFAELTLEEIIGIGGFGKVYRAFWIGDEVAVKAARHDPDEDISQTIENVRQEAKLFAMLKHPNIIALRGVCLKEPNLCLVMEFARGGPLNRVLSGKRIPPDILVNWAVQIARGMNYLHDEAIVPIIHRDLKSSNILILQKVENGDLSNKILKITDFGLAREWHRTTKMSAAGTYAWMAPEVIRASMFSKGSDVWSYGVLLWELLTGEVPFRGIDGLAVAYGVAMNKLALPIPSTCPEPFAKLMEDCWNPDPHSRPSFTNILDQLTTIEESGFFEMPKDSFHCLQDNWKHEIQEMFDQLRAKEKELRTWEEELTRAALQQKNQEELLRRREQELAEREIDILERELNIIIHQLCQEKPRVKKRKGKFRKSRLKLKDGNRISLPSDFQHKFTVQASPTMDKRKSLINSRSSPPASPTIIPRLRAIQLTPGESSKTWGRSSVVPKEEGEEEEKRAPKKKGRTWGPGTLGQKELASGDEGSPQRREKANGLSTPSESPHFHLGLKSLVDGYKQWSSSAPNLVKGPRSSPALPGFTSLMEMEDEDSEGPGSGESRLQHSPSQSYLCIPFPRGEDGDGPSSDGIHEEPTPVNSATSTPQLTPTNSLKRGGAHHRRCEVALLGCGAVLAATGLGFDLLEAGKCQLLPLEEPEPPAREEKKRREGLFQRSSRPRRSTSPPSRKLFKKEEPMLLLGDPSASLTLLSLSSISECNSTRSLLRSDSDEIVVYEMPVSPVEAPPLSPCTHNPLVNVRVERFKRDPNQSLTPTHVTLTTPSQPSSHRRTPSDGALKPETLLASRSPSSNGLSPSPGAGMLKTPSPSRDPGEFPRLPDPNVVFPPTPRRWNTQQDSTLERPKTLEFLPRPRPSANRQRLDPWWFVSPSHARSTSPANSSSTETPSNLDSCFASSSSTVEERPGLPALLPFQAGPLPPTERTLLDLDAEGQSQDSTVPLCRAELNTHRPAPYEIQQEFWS
Sequence of Calcium/calmodulin-dependent protein kinase kinase 1 (Homo sapiens) (Q8N5S9 whole entry, looked up): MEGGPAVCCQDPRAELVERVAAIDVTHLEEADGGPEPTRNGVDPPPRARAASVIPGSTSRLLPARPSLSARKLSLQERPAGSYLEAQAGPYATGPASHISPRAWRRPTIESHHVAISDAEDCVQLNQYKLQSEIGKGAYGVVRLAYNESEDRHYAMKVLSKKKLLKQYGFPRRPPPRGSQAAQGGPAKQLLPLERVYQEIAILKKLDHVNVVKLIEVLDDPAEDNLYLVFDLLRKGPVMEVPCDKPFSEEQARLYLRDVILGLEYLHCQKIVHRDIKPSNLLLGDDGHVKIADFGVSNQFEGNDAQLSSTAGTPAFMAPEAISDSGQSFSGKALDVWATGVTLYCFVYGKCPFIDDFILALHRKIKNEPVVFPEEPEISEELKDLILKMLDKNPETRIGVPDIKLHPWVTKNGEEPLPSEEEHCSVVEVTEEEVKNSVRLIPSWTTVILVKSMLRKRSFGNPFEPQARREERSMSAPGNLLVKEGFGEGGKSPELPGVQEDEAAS
Sequence of Cyclin-dependent kinase 4 (Homo sapiens) (P11802 whole entry): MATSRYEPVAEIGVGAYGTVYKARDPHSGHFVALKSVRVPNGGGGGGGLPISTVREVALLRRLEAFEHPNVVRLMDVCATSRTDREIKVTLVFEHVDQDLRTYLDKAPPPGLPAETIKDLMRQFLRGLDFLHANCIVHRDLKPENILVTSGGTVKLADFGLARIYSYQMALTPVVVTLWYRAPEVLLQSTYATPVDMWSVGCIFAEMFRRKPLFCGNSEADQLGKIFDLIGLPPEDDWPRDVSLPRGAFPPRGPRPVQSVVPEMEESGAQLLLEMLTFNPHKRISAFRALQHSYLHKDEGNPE
Sequence of Cyclin-dependent kinase 4/cyclin D1 (P11802 whole entry): as above
Sequence of Cyclin-dependent kinase 4/cyclin D1 (P24385 whole entry, further chain): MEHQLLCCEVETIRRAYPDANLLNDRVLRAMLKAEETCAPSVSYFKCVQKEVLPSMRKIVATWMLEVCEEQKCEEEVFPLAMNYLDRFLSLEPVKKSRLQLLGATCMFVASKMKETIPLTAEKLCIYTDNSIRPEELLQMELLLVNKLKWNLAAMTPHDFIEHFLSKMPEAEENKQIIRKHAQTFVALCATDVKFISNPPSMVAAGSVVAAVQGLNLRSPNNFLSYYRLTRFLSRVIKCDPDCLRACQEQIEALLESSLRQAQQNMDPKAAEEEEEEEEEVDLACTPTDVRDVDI
Sequence of Calcium/calmodulin-dependent protein kinase type 1 (Homo sapiens) (Q14012 whole entry, looked up): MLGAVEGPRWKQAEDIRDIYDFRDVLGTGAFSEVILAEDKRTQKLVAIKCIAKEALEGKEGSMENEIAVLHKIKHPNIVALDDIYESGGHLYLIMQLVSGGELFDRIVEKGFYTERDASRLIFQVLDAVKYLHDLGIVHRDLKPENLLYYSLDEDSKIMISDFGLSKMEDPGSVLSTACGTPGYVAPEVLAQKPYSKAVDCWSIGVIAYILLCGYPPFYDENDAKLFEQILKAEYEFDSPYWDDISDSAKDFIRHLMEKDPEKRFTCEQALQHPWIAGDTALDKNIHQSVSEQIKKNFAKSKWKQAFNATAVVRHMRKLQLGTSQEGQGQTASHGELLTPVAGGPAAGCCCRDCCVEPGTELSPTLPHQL
Sequence of CDK6/cyclin D1 (P24385 whole entry): as the sequence (P24385 whole entry, further chain) above
Sequence of CDK6/cyclin D1 (Q00534 whole entry): as the sequence (Q00534 whole entry) above

COc1ccccc1NC(=O)c1cc2cnc(Nc3ccc(N4CCNCC4)cn3)nc2n1C1CCCC1
inhibition [1]: > 80% | half-life [2]: 1.21 h | inhibition [3]: > 80% | IC50 (MIA PaCa-2 [4]): 1830 nM | Activity (MIA PaCa-2 [5]): 35.15% | inhibition [6]: > 80% | inhibition [7]: > 80% | Activity (MIA PaCa-2 [8]): 21.63% | Activity (MIA PaCa-2 [9]): 4.85% | IC50 (BXPC-3): 4120 nM | Papp [10]: 517 ×10⁻⁶ cm/s | IC50 [11]: 20.5 nM | Activity (MIA PaCa-2 [12]): Active | Activity (MIA PaCa-2 [13]): 4.06% | inhibition [14]: > 80% | inhibition [15]: Active | Activity (MIA PaCa-2 [16]): Dose-dependent effect | Activity (MIA PaCa-2 [17]): 74.31% | Activity (MIA PaCa-2 [18]): Active | Activity (MIA PaCa-2 [19]): 30.8% | solubility [20]: 1.1 µg/mL (≈ 2.15 µM) | Activity (MIA PaCa-2 [21]): 3.69% | inhibition [22]: > 80% | inhibition [23]: > 80% | Activity (MIA PaCa-2 [24]): 60% | inhibition [25]: > 80% | inhibition [26]: Active | Papp [27]: 464 ×10⁻⁶ cm/s | Activity (MIA PaCa-2 [28]): 65.48% | IC50 (CDK6/cyclin D1): 52.3 nM | half-life [29]: > 0.5 h | Ratio IC50 (MIA PaCa-2 [30]): 10
